According to patent US10028992B2, “Methods of treating muscular dystrophy” (BOARD OF REGENTS OF THE NEVADA SYSTEM OF HIGHER EDUCATION …, priority 2012, dated 2018):

Tested on: α7 integrin promoter
Assay: muscle cell-based assay: α7βgal+/− myoblasts/myotubes, LacZ reporter, β-galactosidase cleavage of FDG
Parameters: species or system mouse
Conditions: Myotubes; for Results in a α7+/− β-galactosidase assay, Myotubes, 0.5 uM: compound at 0.5 uM; for Results in a α7+/− β-galactosidase assay, Myotubes, 1 uM: compound at 1 uM; for Results in a α7+/− β-galactosidase assay, Myotubes, 5 uM: compound at 5 uM; for Results in a α7+/− β-galactosidase assay, Myotubes, 10 uM: compound at 10 uM; for Results in a α7+/− β-galactosidase assay, Myotubes, 20 uM: compound at 20 uM; for Results in a α7+/− β-galactosidase assay, Myotubes, 40 uM: compound at 40 uM
In short: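 Primary α7βgal+/− mouse myoblasts (LacZ knocked into α7 integrin exon 1, promoter retained), differentiated; promoter activity read as β-galactosidase conversion of non-fluorescent FDG to fluorescein. Hits followed by dose-response, western analysis and myostatin counterscreen.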

Structure (SMILES)	Results in a α7+/− β-galactosidase assay, Myotubes, 0.5 uM	Results in a α7+/− β-galactosidase assay, Myotubes, 1 uM	Results in a α7+/− β-galactosidase assay, Myotubes, 5 uM	Results in a α7+/− β-galactosidase assay, Myotubes, 10 uM	Results in a α7+/− β-galactosidase assay, Myotubes, 20 uM	Results in a α7+/− β-galactosidase assay, Myotubes, 40 uM
CCOc1ccccc1Nc1cc2n(c(=O)n1)CCc1cc(OC)c(OC)cc1-2 [drawing 438]	0.06921	0.1295	−0.255	−0.3585	−0.1938	−0.1921
CCOc1ccccc1NC(=O)COC(=O)CNS(=O)(=O)c1ccc(C)cc1 [drawing 440]	−0.09293	0.0165	−0.2547	−0.2483	−0.1393	−0.07634
Fc1ccc(-c2ccnc3nc(N4CCN(c5ccccc5)CC4)nn23)cc1 [drawing 441]	0.1617	0.1989	0.08445	0.3037	−0.1429	0.1756
CCOc1cc2c3c(c1)C(C)=CC(C)(C)N3C(=O)C2=O [drawing 442]	0.1339	0.05498	−0.2641	−0.2882	−0.3067	−0.3705
COc1ccc2c(c1)/C(=C\c1cccc(/C=C3/C(=O)Nc4ccc(OC)cc43)n1)C(=O)N2 [drawing 443]	−0.1407	−0.2351	−0.5201	−0.5078	−0.5433	−0.6161
C/C(=N\NC(=O)c1cc(C)oc1C)c1ccc2ccccc2c1 [drawing 444]	−0.05394	−0.1247	0.2514	−0.05957	−0.1231	−0.2807
O=C1Nc2ccccc2/C1=C\c1cccn1-c1ccc(OC(F)(F)F)cc1 [drawing 445]	0.0705	0.06007	0.1996	−0.05189	−0.1444	−0.2888
NS(=O)(=O)c1ccc(NC(=O)CN2CCc3ccccc32)cc1 [drawing 446]	−0.03601	−0.07498	0.1476	−0.1666	−0.05843	−0.06764
CC(=O)C1=C(C)Nc2ncnn2C1c1ccc(C)cc1 (stereo not drawn) [drawing 447]	0.06012	−0.01856	0.152	−0.155	−0.1763	−0.08699
COc1ccc(OC)c(S(=O)(=O)Nc2c(NC3CCCCC3)c3ccccc3oc2=O)c1 [drawing 448]	0.01269	−0.0336	0.04486	−0.2638	−0.05892	−0.2063
CC(=O)Nc1ccc(NC(=O)C/C(C)=N/NC(=O)COc2cc(C)c(Br)cc2Br)cc1 [drawing 449]	−0.08286	−0.1235	−0.2507	−0.3124	−0.1128	−0.2976
Cc1cccc(Cn2cnc3c(nnn3Cc3ccc(Cl)cc3)c2=O)c1 [drawing 450]	0.04908	−0.01328	−0.09823	−0.3107	−0.1707	−0.1775
CCOc1ccc(Br)cc1S(=O)(=O)Nc1ccc(C(=O)Nc2ccccc2OC)cc1 [drawing 451]	0.1091	0.02499	−0.02123	−0.1229	−0.2419	−0.2407
O=C(NCc1ccccc1)c1csc(-c2cccnc2)n1 [drawing 452]	−0.05273	−0.1614	0.1395	0.1693	0.05975	−0.1073
O=C1C2CCCN2C(=O)N1CCCN1CCN(c2cccc(Br)c2)CC1 (stereo not drawn) [drawing 453]	−0.101	−0.07437	−0.1132	0.07677	−0.1243	0.1476
C=CCc1c(C)nc(-c2ccccc2)nc1N/N=C(\C)c1ccc(N)cc1 [drawing 454]	−0.04135	−0.05977	−0.2067	0.05284	−0.1823	0.1021
CC(C)(C)c1csc(NC(=O)c2cccnc2)n1 [drawing 455]	−0.1018	−0.04907	0.01472	0.1276	−0.2798	−0.144
Cc1ccccc1/C=C1\C(=O)Nc2ccc(F)cc21 [drawing 456]	0.008769	−0.01895	−0.02208	0.1345	−0.1202	0.009496
Cc1ccc2c(c1)/C(=C/c1ccccc1)C(=O)N2 [drawing 457]	−0.1541	−0.09775	−0.09703	0.151	−0.411	−0.4149
COC(=O)c1ccccc1CC(=O)CSc1nc(O)c(-c2ccccc2)c(O)n1 [drawing 458]	−0.05289	−0.1068	−0.1993	0.1104	−0.1578	0.03611
Cc1ccc2c(c1)/C(=C/c1ccccc1F)C(=O)N2 [drawing 459]	−0.02905	−0.08264	−0.2089	0.1057	−0.3626	−0.3722
CC(=O)Nc1ccc(-n2c(C)nc(=O)c(-c3ccccc3)c2C)cc1 [drawing 460]	−0.1626	−0.1764	−0.2443	−0.1679	−0.3617	−0.505
CCc1nc2ccccc2c(C(=O)NCc2ccccc2)c1C [drawing 461]	−0.0989	−0.1627	0.438	0.1173	−0.1092	0.1436
CCOC(=O)c1cc(-c2cccs2)nc2c1c(C)nn2-c1ccccn1 [drawing 462]	−0.07388	−0.1286	−0.1329	−0.1516	−0.2792	−0.2792
CN1CCN(c2ccccc2/C=C2\C(=O)Nc3ccccc32)CC1 [drawing 463]	0.01535	0.02095	−0.163	−0.162	−0.1247	−0.07473
